Data: patent US5593678A, “Protection of teleost fish” (University of Georgia Research Foundation, priority 1994, dated 1997)
Entries after “also recorded” stand apart in the source; their conditions may differ. Counter-ions that a name gives are not always drawn. Like-named read-outs stand apart in the source and are kept apart here.

Experiments:
[1] = test system: NCC (lysis of IM-9 target cells); experiment: NCC cytotoxicity (51Cr release) after treatment with protein kinase inhibitors; assay type: cell-based, channel catfish (Ictalurus punctatus); conditions: for Percentage specific release: media control 25.9%; for activation at 30 µM / activation at 60 µM: read-out: Percentage increase (vs media control)
Procedure: To prepare NCC, fish were lightly anesthetized with ethyl m-aminobenzoate (Sigma Chemical Co.) in water and sacrificed.
IM-9 target cells were used in cytotoxicity assays. […] Cells were grown in stationary suspension cultures and were maintained at approximately 1×10^6 cells/ml. […]

[2] = test system: protein kinase C (PKC); conditions: cited from earlier work
[3] = test system: cyclic nucleotide dependent kinases; conditions: cited from earlier work
[4] = test system: NCC membrane proteins (tyrosine phosphorylation); experiment: Tyrosine phosphorylation of NCC membrane proteins following mab 5C6 activation (Western blot); assay type: cell-based, channel catfish (Ictalurus punctatus); conditions: NCC pretreated two hours with inhibitor; 100 μg/ml genistein or 30 μM HA1004
Procedure: FIG. 1. Tyrosine phosphorylation of NCC membrane proteins following activation by mab 5C6. NCC were resuspended at 500×10^6 /ml and 200 μl aliquots were incubated at 37° C. with either 125 μl ammonium sulfate precipitate mab 5C6 (left panel) or an isotype control (right panel). At the indicated timed intervals, the reactions were terminated by addition of 325 μl of 2×lysis buffer. Lysates were immunoprecipitated with mab 4G10, electrophoresed on 11% SDS-PAGE, blotted onto nitrocellulose, and probed with mab 4G10. Molecular weight markers are indicated by the arrows.
FIG. 2. Tyrosine phosphorylation of Percoll-enriched NCC. Fish NCC were centrifuged for 15 minutes at 500 g on a 45.5% Percoll cushion. The cells at the interphase were harvested, washed, and treated with mab 5C6 for 0 and 20 sec before addition of 2×lysis buffer. Lysates were electrophoresed, blotted on nitrocellulose, and probed with mab 4G10.
FIG. 3. Effects of genistein on tyrosine phosphorylation in fish NCC. Fish NCC were incubated with media, genistein (100 μg/ml), or HA1004 (30 μM) for two hours prior to activation for zero time with mab 5C6 (left lane) and 40 sec with either mab 5C6 (middle lane) or an irrelevant IgM isotype control (right lane). Reactions were stopped by addition of lysis buffer and lysates were processed as explained in the legends to FIGS. 1 and 2. […]

[5] = test system: NCC (lysis of IM-9 target cells); experiment: Costimulation assay: NCC cytotoxicity (51Cr release) with A23187 or mab 5C6; assay type: cell-based, channel catfish (Ictalurus punctatus); conditions: for activity at 60 µM: Ictalurus punctatus, IM-9, 2 h, mabs 1:50 dilution, H-7, HA1004 60 μM, genistein 0.5 μg/ml
Procedure: Incubation was two hours and cells were either washed or not washed before addition to ^51 Cr-labeled IM-9 target cells (4- to 6-hour cytotoxicity assays).
To further investigate this inhibitory effect, a costimulus experiment was done using a calcium ionophore, e.g., A23187, combined with the various inhibitors and activators of NCC activity. Pretreatment of NCC with A23187 produced an almost identical increase in cytotoxicity regardless of the identity of the first treatment.
In a second costimulus experiment mab 5C6 was used (instead of A23187) to activate cytotoxicity (Table 6).

[6] = test system: Na^+ /K^+ ATPase; conditions: cited from earlier work

CNCCNS(=O)(=O)c1cccc2cnccc12.Cl.Cl [H-8, N-(2-(methylamino)ethyl)-5-isoquinolinesulfonamide di-HCl]
inhibition of NCC cytotoxicity [1]: time and dose dependent inhibition of NCC cytotoxicity | inhibition at 30 µM ([1]; Ictalurus punctatus, 1.5 h, read-out: Percentage inhibition (NCC activity), 30 μM, 90 minutes, washed, E:T 80.1): 0% | inhibition at 60 µM ([1]; Ictalurus punctatus, 1.5 h, read-out: Percentage inhibition (NCC activity), 60 μM, 90 minutes, washed, E:T 80.1): 13.8% | inhibition at 150 µM ([1]; Ictalurus punctatus, 1.5 h, read-out: Percentage inhibition (NCC activity), 150 μM, 90 minutes, washed, E:T 80.1): 36.9% | inhibition at 300 µM ([1]; Ictalurus punctatus, 1.5 h, read-out: Percentage inhibition (NCC activity), 300 μM, 90 minutes, washed, E:T 80.1): 46.5% | inhibition of NCC activity, comparison with H-7 ([1]; approximately 150 μM H-8, di-HCl): levels of inhibition comparable to that obtained with an approximately 30 μM concentration of H-7 | effect on protein kinase C ([2]; di-HCl): almost no effect on PKC activity; also recorded: limited effect on PKC | inhibition of cyclic nucleotide dependent kinases [3]: more inhibitory of cyclic nucleotide dependent kinases

N=C(N)NCCNS(=O)(=O)c1cccc2cnccc12 [HA1004, N-(2-guanidoethyl)-5-isoquinolinesulfonamide di-HCl]
effect of removal (washing) of inhibitor on cytotoxicity [1]: did not reduce the augmentation of cytotoxicity | Percentage specific release ([1]; 30 μM, 60 min): 38.7% | Percentage specific release ([1]; 30 μM, 120 min): 39.0% | Percentage specific release ([1]; 30 μM, 180 min/wash): 36.0% | Percentage specific release ([1]; 30 μM, 180 min): 35.9% | Percentage specific release ([1]; 60 μM, 60 min): 38.5% | Percentage specific release ([1]; 60 μM, 120 min): 36.9% | Percentage specific release ([1]; 60 μM, 180 min/wash): 34.2% | Percentage specific release ([1]; 60 μM, 180 min): 36.5% | activation at 30 µM ([1]; Ictalurus punctatus, 1 h, 30 μM, 60 min): 49.2% | activation at 60 µM ([1]; Ictalurus punctatus, 1 h, 60 μM, 60 min): 48.3% | activation at 30 µM ([1]; Ictalurus punctatus, 2 h, 30 μM, 120 min): 50.2% | activation at 60 µM ([1]; Ictalurus punctatus, 2 h, 60 μM, 120 min): 42.1% | activation at 30 µM ([1]; Ictalurus punctatus, 3 h, 30 μM, 180 min/wash): 38.7% | activation at 30 µM ([1]; Ictalurus punctatus, 3 h, 30 μM, 180 min): 38.5% | activation at 60 µM ([1]; Ictalurus punctatus, 3 h, 60 μM, 180 min/wash): 31.8% | activation at 60 µM ([1]; Ictalurus punctatus, 3 h, 60 μM, 180 min): 40.6% | effect on protein kinase C [2]: no effect on PKC | specific protein phosphorylation after mab 5C6 [4]: did occur | Percentage specific release ([5]; E:T 40:1, 10^-4 M A23187, 60 μM H7 and HA1004, 0.5 μg/ml genistein, 1:3 dilution of tissue culture supernatant, media control 20.6): 33.2% | activity at 60 µM ([5]; 4 × 10^6 NCC/ml, read-out: Percentage of control (E:T ratio) 40%): 211% | activity at 60 µM ([5]; read-out: Percentage of control (E:T ratio) 20%): 243% | influence of pretreatment on A23187 activation ([5]; pretreatment prior to A23187, di-HCl): did not appear to be additive and did not influence the final level of activation | inhibition of cyclic nucleotide dependent kinases [3]: inhibits mostly cyclic nucleotide dependent kinases

[O]=[V+2] [vanadyl ion, vanadyl (IV) ion]
Na^+ /K^+ ATPase inhibition [6]: little effect
